In the NIST ThermoML archive (doi:10.1016/j.fluid.2018.08.012):

Assay: mn = molality of the nth substance listed, in mol/kg
Conditions: Fluid (supercritical or subcritical phases), Vibrating tube method, m1 = 0.2867

O=O [oxygen] + O=C=O
Conditions	mass density [kg/m3]
324.14 K, 2522.5 kPa	45.49
324.14 K, 2531.8 kPa	45.7
324.14 K, 4992.7 kPa	102.94
324.14 K, 4998.9 kPa	103.15
324.14 K, 7566.1 kPa	190.74
324.14 K, 7573.3 kPa	191.05
324.14 K, 10066 kPa	353.17
324.14 K, 10098 kPa	356.14
324.14 K, 12475 kPa	568.33
324.14 K, 12572 kPa	574.14
324.14 K, 15029 kPa	672.53
324.14 K, 15098 kPa	674.53
324.14 K, 17553 kPa	728.46
324.14 K, 17623 kPa	729.72
324.14 K, 20076 kPa	766.9
324.14 K, 20148 kPa	767.83
324.14 K, 22597 kPa	796.51
324.14 K, 22667 kPa	797.24
324.14 K, 25116 kPa	820.6
324.14 K, 25186 kPa	821.19
324.14 K, 27631 kPa	841.02
324.14 K, 27694 kPa	841.49
324.14 K, 30138 kPa	858.75
324.14 K, 30191 kPa	859.1
324.14 K, 32647 kPa	874.55
324.14 K, 32683 kPa	874.75
324.14 K, 35167 kPa	888.83
324.14 K, 35203 kPa	889.04
349.64 K, 2302.3 kPa	37.34
349.64 K, 2512.6 kPa	41.14
349.64 K, 4999.4 kPa	89.28
349.64 K, 5056.2 kPa	90.61
349.64 K, 7565.3 kPa	151.08
349.64 K, 7587.3 kPa	151.35
349.64 K, 10124 kPa	230.35
349.64 K, 10132 kPa	230.46
349.64 K, 12648 kPa	331.76
349.64 K, 12654 kPa	331.87
349.64 K, 15179 kPa	445.16
349.64 K, 15184 kPa	445.19
349.64 K, 17705 kPa	539.74
349.64 K, 17709 kPa	539.82
349.64 K, 20232 kPa	608.22
349.64 K, 20234 kPa	608.3
349.64 K, 22753 kPa	658.24
349.64 K, 22754 kPa	658.22
349.64 K, 25272 kPa	696.75
349.64 K, 25273 kPa	696.87
349.64 K, 27781 kPa	727.9
349.64 K, 27787 kPa	728.07
349.64 K, 30280 kPa	753.96
349.64 K, 30284 kPa	754.07
349.64 K, 32783 kPa	776.37
349.64 K, 32788 kPa	776.48
349.64 K, 35276 kPa	795.97
349.64 K, 35282 kPa	796.06
375.03 K, 2543.1 kPa	38.14
375.03 K, 2546.2 kPa	38.31
375.03 K, 5059.3 kPa	80.85
375.03 K, 5060.3 kPa	80.97
375.03 K, 7540.3 kPa	129.17
375.03 K, 7545.1 kPa	129.65
375.03 K, 10091 kPa	186.78
375.03 K, 10093 kPa	186.66
375.03 K, 12606 kPa	251.89
375.03 K, 12615 kPa	252.03
375.03 K, 15138 kPa	324.48
375.03 K, 15156 kPa	324.83
375.03 K, 17663 kPa	398.41
375.03 K, 17683 kPa	398.81
375.03 K, 20185 kPa	466.78
375.03 K, 20209 kPa	467.22
375.03 K, 22704 kPa	525.43
375.03 K, 22730 kPa	525.92
375.03 K, 25225 kPa	574.34
375.03 K, 25249 kPa	574.81
375.03 K, 27742 kPa	614.94
375.03 K, 27764 kPa	615.3
375.03 K, 30257 kPa	648.94
375.03 K, 30265 kPa	649.12
375.03 K, 32764 kPa	678.12
375.03 K, 32769 kPa	678.04
375.03 K, 35257 kPa	703.36
375.03 K, 35260 kPa	703.21
400.19 K, 2573.8 kPa	35.12
400.19 K, 2574.8 kPa	35.31
400.19 K, 5072.3 kPa	73.3
400.19 K, 5100.4 kPa	73.64
400.19 K, 7612.6 kPa	115.55
400.19 K, 7616.5 kPa	115.71
400.19 K, 10127 kPa	162.27
400.19 K, 10138 kPa	162.47
400.19 K, 12592 kPa	211.79
400.19 K, 12600 kPa	212.51
400.19 K, 15121 kPa	265.98
400.19 K, 15134 kPa	266.82
400.19 K, 17648 kPa	321.85
400.19 K, 17661 kPa	322.66
400.19 K, 20173 kPa	377.08
400.19 K, 20186 kPa	377.95
400.19 K, 22693 kPa	429.17
400.19 K, 22707 kPa	430.08
400.19 K, 25212 kPa	476.61
400.19 K, 25228 kPa	477.53
400.19 K, 27728 kPa	518.93
400.19 K, 27743 kPa	519.82
400.19 K, 30241 kPa	556.24
400.19 K, 30253 kPa	557.1
400.19 K, 32739 kPa	588.97
400.19 K, 32757 kPa	589.89
400.19 K, 35235 kPa	617.97
400.19 K, 35247 kPa	618.78
